Data published in patent US6321750A, “Condom lubricants with zinc salts as anti-viral additives” (priority 1999, dated 2001).

Tested on: HIV
Assay: HIV infectivity tests with zinc acetate 1.5% (diluted and undiluted viral stocks, p24 ELISA)
Type: cell-based, HIV-1
Description: The tests described above, in Example 8, used an undiluted high-titer viral stock, which contained at least ten million infectious viral particles per ml. That concentration can be achieved in a laboratory only by special culturing, purification, and concentration techniques, and it is vastly higher than would actually occur in the ejaculate of an HIV-infected person (especially someone who is not in the end stages of the disease, and who might pose a significant risk of transmitting the virus to an unknowing sexual partner).
These tests used serial dilutions of the viral stocks, at ranges from 1:10 to 1:10,000. To create the 1:10 dilution, 500 μl of viral stock was mixed with 4.5 ml of RPMI medium. Subsequent dilutions added 9 ml of RPMI medium to 1 ml from the preceding dilution.
A 2 ml aliquot from each dilution was mixed with an equal volume of 3% ZnAc dissolved in sterile distilled water; after mixing, the zinc concentration was 5.3 mg/ml Zn. These mixtures were incubated for 2 hours, then diluted with culture medium at 1:30, 1:100, and 1:1000 to reduce the toxicity of the zinc to lymphocytes. Four ml of lymphocytes were mixed with 4 ml of each zinc/virus mixture. The zinc/virus/cell mixtures were incubated at 37° C. for 3 hours; zinc concentrations were 88, 27, and 2.7 μg/ml in the 30, 100, and 1000 dilutions.
Following the 3 hour incubation, the cells were washed twice in RPMI medium and resuspended in fresh medium containing 10% FCS. Each solution was inoculated (2 ml; estimated minimum 2×10^5 cells per well) into each of three wells in a 12-well plate and cultured for 27 days, with periodic sampling and measuring of p24 antigens.
Positive controls used 1:1000 dilutions of viral stock mixed with zinc-free RPMI. These controls were consistently highly infectious, even though their concentrations were 100× lower than the 1:10 mixtures in which infectivity was eliminated by zinc treatment. Other positive controls were tested at up to 100,000× dilutions; these were highly infective in two out of the three plates tested.
While carrying out the viral dilution tests, tests were also performed using 2 ml of 3% ZnAc solution in distilled water mixed with 2 ml aliquots of undiluted viral stock. The zinc/virus mixtures were incubated for 2 hours, diluted with RPMI at 1:100 and 1:1000 ratios, and mixed with lymphocytes for three hours; zinc concentrations were 27 and 2.7 μg/ml. The cells were washed twice, inoculated into 12 well plates as described above, and cultured for 27 days.

In the case of Zinc acetate, the HIV infectivity (10×, 100×, 1000× diluted stocks, zinc/virus diluted 1:1000 (2.7 μg/ml Zn)) is reported as “completely blocked infectivity”, the HIV infectivity (diluted stocks, zinc/virus diluted 1:100 (27 μg/ml Zn)) is reported as “viral infectivity was completely blocked” and the HIV infectivity (diluted viral stocks, 1.5% zinc acetate 2 h) is reported as “completely eliminated”. For the same substance, the HIV infectivity (diluted viral stocks, 1.5% zinc acetate 2 h, listed as ZnAc) was “completely eliminated the infectivity”, the “HIV infectivity (FIG. 4)” value (high-titer stocks, various concentrations of zinc acetate) was “either eliminated or suppressed” and the HIV infectivity (undiluted stock, zinc/virus diluted 1:100 (27 μg/ml Zn), 27 days) was “completely prevented infectivity”. The HIV infectivity (undiluted stock, zinc/virus diluted 1:1000 (2.7 μg/ml Zn), 27 days) was “delayed the onset of infection”.
